The record followed here is patent publication US20120022048A1, “Anti-proliferative substituted pyrazolo[3,4-d]pyrimidines derivatives (SPP) to inhibit immune activation, virus replication and tumor growth” (priority 2010, published 2012).

Molecules are shown by their SMILES. “Also recorded” adds a separate entry of the source. Like-named read-outs stand apart in the source and are kept apart here.

Data set [1] relates to Human peripheral blood mononuclear cells (PBMC). The experiment in a line: Cell cycle analysis of anti-CD3/anti-CD28 stimulated PBMC (Ki-67 and 7-AAD flow cytometry). It counts as cell-based. Conditions: 24 hours treatment; compared to the not treated control; FIG. 6. The procedure: A 48 well plate was coated with anti-CD3 antibody by dispensing 100 microliter of a 10 μg/ml antibody solution followed by overnight incubation at 4° C. Human peripheral blood mononuclear cells (PBMC), obtained from healthy, normal donors, were then plated (2×10^6 cells per well in 1 ml) in complete culture medium supplemented with anti-CD28 antibody (2 μg/ml). Stimulated cells were cultured for 2 days then treated with HU, CsA, and VS1-002 to induce cell cycle arrest.
A general note: In flow cytometry, cells or beads pass a laser one at a time.

Data set [2] shares this test system. The following applies: 7 days.
Data set [3] relates to primary human CD4 T-lymphocytes. The experiment in a line: Apoptosis in primary CD4 T cells (Annexin V and 7-AAD staining). It counts as cell-based. The following applies: for apoptotic effect (in words): compared with HU 100 μM, HU+ddI or untreated control. In short, it runs like this:
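Resting primary human CD4 T cells from healthy donors were PHA-activated (5 μg/ml) at day 5, with IL-2 (20 U/ml) added at day 7. Compounds were tested at 10 μM. At day 10, Annexin V/7-AAD staining gave percentage of total apoptotic events.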

Data set [4] concerns HIV-1 NL 4.3. The data set is described as follows: HIV-1 replication in quiescent CD4 T cells (p24 Ag ELISA). It is filed as cell-based. The following applies: for inhibition at 10 µM: Human immunodeficiency virus 1, CD4+ T, quiescent cells, read-out: reduction of HIV-1 p24 production / inhibition of HIV replication compared to untreated control; for anti-HIV activity in quiescent cells (in words): compared with HU 100 μM, HU+ddI or untreated control. In short, it runs like this:
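Resting human CD4 T cells from healthy donors were infected, then stimulated with PHA 5 μg/ml on day 5 and IL-2 20 U/ml on day 7. Compounds were tested at 10 μM, with HU 100 μM ± ddI 2 μM as comparators. p24 was measured by ELISA on day 10 and expressed as % of untreated control.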
In general terms: ELISA stands for enzyme-linked immunosorbent assay.

The test system of data set [5] is HIV-1 NL 4.3. The data set is described as follows: HIV-1 replication in activated T cells (PBMC, p24 Ag ELISA). It is filed as cell-based. Conditions: for anti-HIV activity in activated T cells (in words): SPPs 10 μM, compared with HU 100 μM, HU+ddI or untreated control. The method in brief:
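PBMC from healthy donors, stimulated two days with PHA 5 μg/ml, were infected with HIV-1 NL 4.3 and given IL-2 (20 U/ml) and compound at 10^5 cells per well. After 7 days at 37° C, supernatant p24 Ag was measured by ELISA against an untreated control.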

Data set [6] has as its system primary human CD4 T-lymphocytes. The experiment in a line: Cell hyperproliferation in primary T cells (CFSE staining, mitotic index). Conditions: for anti-proliferative activity (in words): compared with HU 100 μM, HU+ddI or untreated control. It counts as cell-based. The method in brief:
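Primary human CD4 T cells were activated with PHA (5 μg/ml) on day 5, and IL-2 (20 U/ml) was added on day 7. Compounds were tested at 10 μM and cells harvested on day 10. Proliferation was measured by CFSE dilution as a normalized mitotic index, and apoptosis by Annexin V/7-AAD staining on day 10.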

For the molecule `CCCCNc1nc(SCC)nc2c1cnn2CC(Cl)c1ccccc1` (stereo not drawn) [VS1-002, N-butyl-1-(2-chloro-2-phenylethyl)-6-(ethylthio)-1H-pyrazolo[3,4-d]pyrimidin-4-amine], the “effect on cell cycle phases (in words)” value in data set [1] is “decreased the percentage of cells in S phase with an increase in the percentage of cells in G1 phase”. Besides, in data set [2] (human, 10 μM), the “% viability” value was 108.9 ± 8.7% and the “less toxicity than HU 100 μM+ddI 2 μM combination” value is given as 20%. Further, in data set [3] (10 μM, spider graph FIG. 3), the “less proapoptotic effect than HU 100 μM+ddI 2 μM combination” value was “more than 20%”. In data set [3] (SPPs 10 μM), the “apoptotic effect (in words)” value is “did not affect the percentage of apoptotic events; also recorded: not proapoptotic”. For the same molecule, in the data set on HIV-1 NL 4.3 [4], the inhibition at 10 µM turned out to be 90%. For the same molecule, the “anti-HIV activity in quiescent cells (in words)” value in the data set with HIV-1 NL 4.3 [4] (SPPs 10 μM) was “antiviral activity in both quiescent and in hyperactivated cells”. In the data set with HIV-1 NL 4.3 [4] (class symbol, Table 6), the “Antiviral activity in quiescent cells” value was “+++ (excellent (+++, greater than 70% activity))”. In the data set with HIV-1 NL 4.3 [5] (Human immunodeficiency virus 1, T-cell, activated T cells, 10 μM, read-out: inhibition of p24 production / HIV replication compared to untreated control), the inhibition at 10 µM was 86%. In the data set with HIV-1 NL 4.3 [5], the “anti-HIV activity in activated T cells (in words)” value was “inhibited HIV replication in activated T cells”. Besides, the “Antiviral activity in activated cells” value in the data set on HIV-1 NL 4.3 [5] (class symbol, Table 6) is “+++ (excellent (+++, greater than 70% activity))”. For the same molecule, the “anti-proliferative activity (in words)” value in data set [6] (SPPs 10 μM, Imatinib 10 μM) was “as effective as 100 μM HU; also recorded: comparable to that of 100 μM HU and superior to that of Imatinib”. In addition, in data set [6] (class symbol, Table 6), the Anti-proliferative capacity result was “+++ (excellent (+++, greater than 70% activity))”.
With `NC(=O)NO` [HU, hydroxyurea, reference compound], in data set [1], the “effect on cell cycle phases (in words)” value is given as “decreased the percentage of cells in S phase with an increase in the percentage of cells in G1 phase”. In addition, the “apoptotic effect (in words)” value in data set [3] (SPPs 10 μM) is listed as “no significant increases; also recorded: did not substantially affect the percentage of total apoptotic events”. For the same molecule, in the data set on HIV-1 NL 4.3 [4] (SPPs 10 μM), the “anti-HIV activity in quiescent cells (in words)” value was “potent antiviral activity”. The “anti-HIV activity in activated T cells (in words)” value in the data set with HIV-1 NL 4.3 [5] is “not effective in inhibiting HIV replication”. Also, the inhibition at 100 µM in data set [6] (Homo sapiens, T-lymphocyte, read-out: decrease/inhibition of cell proliferation compared to not treated control) stood at 74%. For the same molecule, in data set [6] (SPPs 10 μM, Imatinib 10 μM), the “anti-proliferative activity (in words)” value was “did substantially decrease cell proliferation”.
With `OCCNc1nc(NCc2ccccc2)c2cnn(C=Cc3ccccc3)c2n1` [VS1-015], the “% viability” value in data set [2] (% of not treated control (100%), SPPs 10 μM, Imatinib 10 μM, HU 100 μM, HU 100 μM+ddI 2 μM) is 82.0 ± 5.8%. In data set [3] (total apoptotic events compared to untreated control, day 10, SPPs 10 μM, Imatinib 10 μM, HU 100 μM, ddI 2 μM), this molecule had an apoptosis % of 63.9 ± 9.2%. In addition, in the data set on HIV-1 NL 4.3 [4] (quiescent CD4 T cells, day 10, SPPs 10 μM, HU 100 μM, HU 100 μM+ddI 2 μM), the “HIV quiescent cells (percentage p24 compared to the untreated control)” value worked out at 7.6 ± 2.8%. The “anti-HIV activity in activated T cells (in words)” value in the data set with HIV-1 NL 4.3 [5] was “better anti-HIV activity than HU”. In addition, the “HIV activated cells (% p24 compared to not treated control)” value in the data set with HIV-1 NL 4.3 [5] (activated T cells, 7 days, SPPs and Imatinib 10 μM, HU 100 μM, ddI 2 μM) was determined as 15.3 ± 2.4%. Besides, the mitotic index % in data set [6] (% of not treated control (100%), day 10, SPPs 10 μM, Imatinib 10 μM, HU 100 μM) stood at 55.4 ± 6.0%.
Regarding `CSc1nc(NCCc2ccccc2)c2cnn(C=Cc3ccccc3)c2n1` [VS1-005, 1-styryl-6-methylthio-N-(2-phenylethyl)-1H-pyrazolo[3,4-d]pyrimidin-4-amine], the “% viability” value in data set [2] (human, 10 μM) came out at 84.3 ± 22.7%. Besides, the “apoptotic effect (in words)” value in data set [3] (SPPs 10 μM) is recorded as “did not induce apoptosis; also recorded: no effect on apoptosis; also recorded: did not affect the percentage of apoptotic events”. The inhibition at 10 µM with HIV-1 NL 4.3 [4] stood at 97%. Moreover, the “anti-HIV activity in quiescent cells (in words)” value in the data set on HIV-1 NL 4.3 [4] (SPPs 10 μM) is “strong anti-HIV activity; also recorded: same antiviral power”. The “anti-HIV activity in activated T cells (in words)” value with HIV-1 NL 4.3 [5] is given as “active also against HIV in activated T cells; also recorded: same antiviral power; also recorded: same antiviral activity”. Besides, the “anti-proliferative capacity less than HU+ddI” value in data set [6] (10 μM, spider graph FIG. 3) was found to be 50%. In data set [6] (SPPs 10 μM, Imatinib 10 μM), the “anti-proliferative activity (in words)” value is given as “slightly lower compared to HU”. Besides, in data set [6] (SPPs and Imatinib 10 μM, HU 100 μM), the “decrease/inhibition of cell proliferation compared to not treated control” value was 27%.
